# Experimental data reported in patent US4260761A, “Intermediates for the preparation of octahydro-1H-benzo[4,5]furo[3,2,-e]-isoquinoline analgesic and narcotic antagonistic compounds” (priority 1980, dated 1981).
# Key:
# [1] = test system: Straub tail; assay: Straub tail test (narcotic agonist effect), oral, mice; format: in vivo, mice (CF1 S female); conditions: tail erected 90° or more within 24 minutes
# Experimental: Narcotic analgesics produce in mice an erection and arching of the tail (90° or more) which is referable to spinal cord stimulation. This Straub tail reaction is not produced by other analgesics, including the narcotic antagonists.
# The method used was modified from Shemano, I., and Wendel, H., Tox. Appl. Pharm., 6, 334-9 (1964). CF1 S female mice (18-21 g), 10-20 mice per dose, were intubated with log scaled doses of analgesic in 1% aqueous methylcellulose. A positive Straub tail response was recorded if a tail was erected 90° or more for 5 seconds at any time within 24 minutes after dosing. A quantal Straub tail ED50 was calculated by the moving average method [Thompson, W. R., Bact. Rev., 11, 115-145 (1947)].
# (§1) Most of the compounds were analgetic in the mouse antiphenylquinone test system and only a few caused Straub tail. Most also were antagonists in the mouse anti-Straub tail test.
# (§2) On the other hand, the very high Straub tail ED50 's indicate that most of the compounds of the invention have very low likelihood of being addictive. […] Thus, the compounds of the invention are characterized by rapid onset of action, high oral potency and the ability to alleviate deepseated pain. Furthermore, abuse liability for most of the compounds should be extremely low or non-existent.
# [2] = test system: phenylquinone-induced writhing; assay: Phenylquinone writhing (PQW) analgesic test, oral, mice; format: in vivo, mice (female white); conditions: for EFFECT ED50, Oral Anti-PQW: mice, phenylquinone writhing
# Experimental: A standard procedure for detecting and comparing the analgesic activity of compounds in this series for which there is good correlation with human efficacy is the standard phenylquinone writhing test modified from Siegmund, et al., Proc. Soc. Exp. Biol. Med., 95, 729 (1957). A test compound suspended in 1% methocel® was given orally to fasted (17-21 hours) female white mice, 5-20 animals per double blind test. Aqueous (0.01% phenyl-p-benzoquinone) phenylquinone was injected intraperitoneally at 24 minutes later using 0.20 ml per mouse. […] The effective analgesic dose for 50% of the mice (ED50) was calculated by the moving average method of Thompson, W. R., Bact. Rev., 11, 115-145 (1947).
# as §1, §2
# [3] = test system: morphine-induced Straub tail; assay: Anti-Straub tail test (antagonism of morphine-induced Straub tail), mice; format: in vivo, mice (female CF1 S)
# Experimental: This property is the basis of a mouse test for narcotic antagonists.
# Female CF1 S mice (fasted 17-21 hrs.), 5 per dose, were injected orally or subcutaneously with test drug at 0.67, 2, 6, 18, 54 and 162 mg/kg or other appropriate doses in 0.20 ml 1% Methocel® per mouse. Five minutes later, 30 mg/kg of morphine sulfate in 0.20 ml 1% Methocel® per mouse was given intraperitoneally starting ten minutes later, the mice were observed continuously for 5 minutes for evidence of Straub tail. Prevention of a 90° Straub tail during this observation period was taken as indication of narcotic antagonist ability.
# as §1, §2
# [4] = background; cited from earlier work
# [5] = test system: opiate analgesics; conditions: background; cited from earlier work
# [6] = test system: morphine-induced Straub tail; conditions: mice; Blumberg et al. 1968; cited from earlier work
# [7] = Lasagna and Beecher 1954; cited from earlier work
compound,measurement,setting,value
"CN1CC[C@]23c4cccc(O)c4O[C@H]2CCC[C@H]3C1 (relative stereo) [Example 3, 3-Methyl-2,3,4,4aα,5,6,7,7aα-octahydro-1H-benzo[4,5]furo[3,2-e]isoquinolin-9-ol]",ED50,"[1]; Mus musculus, 0.4 h",135 mg/kg
"Oc1cccc2c1O[C@H]1CCC[C@H]3CN(CC4CC4)CC[C@@]231 (relative stereo) [Example 5, 3-Cyclopropylmethyl-2,3,4,4aα,5,6,7,7aα-octahydro-1H-benzo[4,5]furo[3,2-e]isoquinolin-9-ol]",analgesic potency relative to morphine,[2]; mouse analgesia data,several times greater potency than morphine
"COc1cccc2c1O[C@H]1CCC[C@H]3CN(Cc4ccccc4)CC[C@@]231 (relative stereo) [Example 10, 3-Benzyl-9-methoxy-2,3,4,4aα,5,6,7,7aα-octahydro-1H-benzo[4,5]furo[3,2-e]isoquinoline]",narcotic antagonism,[3]; mouse anti-Straub tail test,pure narcotic antagonists
"COc1cccc2c1O[C@H]1CCC[C@H]3CN(CC#N)CC[C@@]231 (relative stereo) [Example 20, 9-Methoxy-2,3,4,4aα,5,6,7,7aα-octahydro-1H-benzo[4,5]furo[3,2-e]isoquinoline-3-acetonitrile]",ED50,"[3]; Mus musculus, sc, subcutaneous, mice, vs morphine sulfate 30 mg/kg i.p., read-out: EFFECT ED50, Anti-Straub Tail (s.c.)",27 mg/kg
"CN1CCC23c4cccc(O)c4OC2CCCC3C1 (single isomer, unassigned) [Example 3 (+)isomer]","EFFECT ED50, Oral Anti-PQW",[2]; listed as 3 (+)isomer,61
same,"EFFECT ED50, Oral Straub-Tail",[1],> 135
same,"EFFECT ED50, Anti-Straub Tail (s.c.)","[3]; subcutaneous, mice, vs morphine sulfate 30 mg/kg i.p., listed as 3 (+)isomer",3.3
"CN1CCC23c4cccc(O)c4OC2CCCC3C1 (single isomer, unassigned) [Example 3 (-) isomer]","EFFECT ED50, Oral Anti-PQW",[2]; listed as 3 (-) isomer,2.1
same,"EFFECT ED50, Oral Straub-Tail",[1],> 135
same,"EFFECT ED50, Anti-Straub Tail (s.c.)","[3]; subcutaneous, mice, vs morphine sulfate 30 mg/kg i.p., listed as 3 (-) isomer",0.14
CN1CC[C@]23c4c5ccc(O)c4O[C@H]2[C@@H](O)C=C[C@H]3[C@H]1C5 [Morphine],"EFFECT ED50, Oral Anti-PQW",[2],3.0
same,"EFFECT ED50, Oral Straub-Tail",[1],48
C=CCN1CC[C@]23CCCC[C@H]2[C@H]1Cc1ccc(O)cc13 [levallorphan],intrinsic analgesic activity,[4],some analgesic effects by themselves
same,antagonism of opiate analgesics,[5],effectively antagonize overdoses of the opiate analgesics
C=CCN1CC[C@]23c4c5ccc(O)c4O[C@H]2[C@@H](O)C=C[C@H]3[C@H]1C5 [nalorphine],prevention of morphine-induced Straub tail,[6],prevent the induction of Straub tail in mice
same,intrinsic analgesic activity,[4],some analgesic effects by themselves
same,antagonism of opiate analgesics,[5],effectively antagonize overdoses of the opiate analgesics
same,analgetic properties in man,[7],also has analgetic properties in man
C=CCN1CC[C@]23c4c5ccc(O)c4O[C@H]2C(=O)CC[C@@]3(O)[C@H]1C5 [naloxone],prevention of morphine-induced Straub tail,[6],prevent the induction of Straub tail in mice
same,antagonism of emetic effect of meperidine,[5],antagonizes the emetic effect of meperidine
same,antagonism of opiate analgesics,[5],effectively antagonize overdoses of the opiate analgesics
